Experimental findings from patent US20230265151A1, “GIP/GLP1 CO-AGONIST COMPOUNDS” (priority 2020, published 2023) are described below.

Like-named read-outs stand apart in the source and are kept apart here. *1 amine or outer side, *2 acyl side, *3 side chain or, on linkers, in order; H or OH if unused. Where a SMILES comes first, the peptide text is derived from it. Side-chain parts run from the residue outwards. [ ]: non-standard residue; d: D form. The star is where a group is joined. αMePhe(2-F) = C[C@](N)(Cc1ccccc1F)C(=O)O; γGlu = O=C(O)[C@H](CCC(=O)[*:2])N[*:1]; C14 diacid = O=C(O)CCCCCCCCCCCCC(=O)*; αMeY = C[C@](N)(Cc1ccc(O)cc1)C(=O)O; αMeF = C[C@](N)(Cc1ccccc1)C(=O)O; αMeL = CC(C)C[C@](C)(N)C(=O)O; Lauroyl = CCCCCCCCCCCC(=O)*; Orn = NCCC[C@H](N)C(=O)O; AEEA = NCCOCCOCC(=O)O; Aib = CC(C)(N)C(=O)O

What all share (format): cell-based
One assay deals with T1, hGIPR (Homo sapiens, UniProt P48546).
T1 construct: expressed in transfected cells
T1 sequence (P48546 22-466): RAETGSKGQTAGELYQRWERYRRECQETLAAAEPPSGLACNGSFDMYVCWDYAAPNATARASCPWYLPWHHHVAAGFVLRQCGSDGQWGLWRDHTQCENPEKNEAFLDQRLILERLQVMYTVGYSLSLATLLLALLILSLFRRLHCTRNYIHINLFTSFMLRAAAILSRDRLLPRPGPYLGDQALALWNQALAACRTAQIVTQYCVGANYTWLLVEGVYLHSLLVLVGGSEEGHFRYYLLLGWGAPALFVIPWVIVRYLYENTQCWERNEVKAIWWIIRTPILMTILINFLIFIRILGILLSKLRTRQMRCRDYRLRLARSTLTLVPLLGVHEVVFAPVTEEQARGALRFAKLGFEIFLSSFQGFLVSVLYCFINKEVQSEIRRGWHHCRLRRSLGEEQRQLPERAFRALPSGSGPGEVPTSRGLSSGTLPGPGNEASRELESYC
In words: Functional cAMP formation (HTRF) in HEK-293 clonal cells expressing hGIPR, 0.1% bovine casein, without or with 1.0% human serum albumin. The settings on record: for EC50: geometric mean, read-out: hGIPR EC50, nM (SEM, n). In outline:
(§1)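 Cells were stimulated with peptide for 30 min at 37° C, then intracellular cAMP was measured by competitive HTRF (665/620 nm ratio) and converted to nM using a cAMP standard curve. Relative EC50 and Emax came from four-parameter logistic fits of percent maximal response against peptide concentration.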
In general terms: cAMP levels reflect the balance of adenylyl cyclase and phosphodiesterase activity.

For another assay, the target named is T2, hGCGR (Homo sapiens, UniProt P47871).
T2 construct: expressed in transfected cells
In words: Functional cAMP formation (HTRF) in HEK-293 clonal cells expressing hGCGR, 0.1% bovine casein, without or with 1.0% human serum albumin. The settings on record: geometric mean. In outline:
as §1

For the next assay, the target named is hGLP-1R (Homo sapiens, UniProt P43220). The assay is described as follows: Functional cAMP formation (HTRF) in HEK-293 clonal cells expressing hGLP-1R, 0.1% bovine casein, without or with 1.0% human serum albumin. The settings on record: for Emax: arithmetic mean; for EC50: geometric mean, read-out: hGLP-1R EC50, nM (SEM, n). The arrangement: expressed in transfected cells. In outline: as §1

The mark [1] stands for this setting: HEK293, 0.1% bovine casein and 1.0% human serum albumin, 37° C., percent of maximal response to GIP(1-42)NH2, read-out: hGIPR Emax, % ± SEM.
Setting [2] is: 0.1% bovine casein and 1.0% human serum albumin, 37° C., read-out: hGCGR EC50, nM (SEM, n).
Setting [3] is: cAMP, 37° C., 0.1% bovine casein (no human serum albumin).
[4] abbreviates: cAMP, 37° C., 0.1% bovine casein (no human serum albumin), read-out: hGCGR EC50, nM (SEM, n).
Setting [5] is: 0.1% bovine casein and 1.0% human serum albumin, 37° C.

Chain of hGLP-1R (P43220 24-463): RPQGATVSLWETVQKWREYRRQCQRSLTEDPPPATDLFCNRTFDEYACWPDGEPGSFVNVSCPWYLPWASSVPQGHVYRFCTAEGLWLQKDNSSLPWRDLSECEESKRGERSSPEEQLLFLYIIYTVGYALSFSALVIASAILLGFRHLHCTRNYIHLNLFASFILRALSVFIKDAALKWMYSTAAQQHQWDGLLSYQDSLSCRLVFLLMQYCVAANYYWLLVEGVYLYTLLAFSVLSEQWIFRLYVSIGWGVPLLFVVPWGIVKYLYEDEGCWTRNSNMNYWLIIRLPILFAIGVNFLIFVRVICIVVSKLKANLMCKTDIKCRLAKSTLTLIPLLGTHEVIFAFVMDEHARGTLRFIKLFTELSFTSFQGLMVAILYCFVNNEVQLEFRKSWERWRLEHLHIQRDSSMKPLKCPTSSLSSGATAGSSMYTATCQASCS
T2 sequence (P47871 26-477): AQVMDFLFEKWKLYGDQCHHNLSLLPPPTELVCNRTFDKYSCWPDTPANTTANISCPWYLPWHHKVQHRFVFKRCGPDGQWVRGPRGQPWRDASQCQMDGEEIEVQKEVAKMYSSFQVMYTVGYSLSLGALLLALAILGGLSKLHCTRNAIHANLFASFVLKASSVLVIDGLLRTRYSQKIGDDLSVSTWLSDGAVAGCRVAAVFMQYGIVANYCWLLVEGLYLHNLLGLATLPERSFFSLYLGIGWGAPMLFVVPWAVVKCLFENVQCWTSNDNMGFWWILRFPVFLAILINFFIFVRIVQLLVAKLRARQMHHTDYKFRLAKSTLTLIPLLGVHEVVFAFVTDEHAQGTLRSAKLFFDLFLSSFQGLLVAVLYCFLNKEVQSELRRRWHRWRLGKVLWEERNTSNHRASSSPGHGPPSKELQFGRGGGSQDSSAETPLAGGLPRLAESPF

Usually Emax stands for the maximal effect, on the per cent scale that the assay sets. The EC50 is the concentration at which the effect is half-maximal. As to `CC[C@H](C)[C@H](NC(=O)[C@H](CCCN)NC(=O)[C@H](CC(=O)O)NC(=O)[C@H](CC(C)C)NC(=O)[C@](C)(CC(C)C)NC(=O)[C@@H](NC(=O)[C@H](CO)NC(=O)[C@H](Cc1ccncc1)NC(=O)[C@H](CC(=O)O)NC(=O)[C@H](CO)NC(=O)[C@@H](NC(=O)[C@](C)(Cc1ccccc1F)NC(=O)[C@@H](NC(=O)CNC(=O)[C@H](CCC(=O)O)NC(=O)C(C)(C)NC(=O)[C@@H](N)Cc1ccc(O)cc1)[C@@H](C)O)[C@@H](C)O)[C@@H](C)CC)C(=O)N[C@@H](C)C(=O)N[C@@H](CCC(N)=O)C(=O)NC(C)(C)C(=O)N[C@@H](CCCCNC(=O)COCCOCCNC(=O)COCCOCCNC(=O)CC[C@H](NC(=O)CCCCCCCCCCOc1ccc(C(=O)O)cc1)C(=O)O)C(=O)N[C@@H](Cc1ccccc1)C(=O)N[C@H](C(=O)N[C@H](CCC(=O)O)C(=O)N[C@@](C)(Cc1ccc(O)cc1)C(=O)N[C@@H](CC(C)C)C(=O)N[C@H](C(=O)N[C@@H](CCCCNC(=O)COCCOCCNC(=O)COCCOCCNC(=O)CC[C@H](NC(=O)CCCCCCCCCCOc1ccc(C(=O)O)cc1)C(=O)O)C(=O)NCC(=O)NCC(=O)N1CCC[C@H]1C(=O)N[C@@H](CO)C(=O)N[C@@H](CO)C(=O)NCC(=O)N[C@@H](C)C(=O)N1CCC[C@H]1C(=O)N1CCC[C@H]1C(=O)N1CCC[C@H]1C(=O)N[C@@H](CO)C(N)=O)[C@@H](C)CC)[C@@H](C)CC` [Example 287], the Emax on hGIPR (HEK293, read-out: hGIPR Emax, % ± SEM, 0.1% bovine casein and 1.0% human serum albumin, 37° C., percent of maximal response to GIP(1-42)NH2) turned out to be 98.9%; at hGIPR (HEK293, read-out: hGIPR Emax, % ± SEM, cAMP, 37° C., 0.1% bovine casein, percent of maximal response to GIP(1-42)NH2, arithmetic mean), 93%; on hGLP-1R (HEK293, read-out: hGLP-1R Emax, % ± SEM, cAMP, 37° C., 0.1% bovine casein, percent of maximal response to GLP-1(7-36)NH2), 97.2%. Further, the EC50 was more than 9950 nM at hGCGR (hGCGR EC50, nM (SEM, n), 0.1% bovine casein and 1.0% human serum albumin, 37° C.); more than 9950 nM at hGCGR (hGCGR EC50, nM (SEM, n), cAMP, 37° C., 0.1% bovine casein (no human serum albumin)).

Take `CC[C@H](C)[C@H](NC(=O)[C@H](CC(C)C)NC(=O)[C@](C)(Cc1ccc(O)cc1)NC(=O)[C@@H](CCC(=O)O)NC(=O)[C@@H](NC(=O)[C@H](Cc1ccccc1)NC(=O)[C@H](CCC(=O)O)NC(=O)C(C)(C)NC(=O)[C@H](CCC(N)=O)NC(=O)[C@H](C)NC(=O)[C@H](CCCCNC(=O)COCCOCCNC(=O)COCCOCCNC(=O)CC[C@H](NC(=O)CCCCCCCCCCCCC(=O)O)C(=O)O)NC(=O)[C@H](CCCN)NC(=O)[C@H](CC(=O)O)NC(=O)[C@H](CC(C)C)NC(=O)[C@](C)(CC(C)C)NC(=O)[C@@H](NC(=O)[C@](C)(CO)NC(=O)[C@H](Cc1ccncc1)NC(=O)[C@H](CC(=O)O)NC(=O)[C@H](CO)NC(=O)[C@@H](NC(=O)[C@](C)(Cc1ccccc1F)NC(=O)[C@@H](NC(=O)CNC(=O)[C@H](CCC(=O)O)NC(=O)C(C)(C)NC(=O)[C@@H](N)Cc1ccc(O)cc1)[C@@H](C)O)[C@@H](C)O)[C@@H](C)CC)[C@@H](C)CC)C(=O)N[C@@H](CCC(=O)O)C(=O)NCC(=O)NCC(=O)N[C@@H](CCCCNC(=O)COCCOCCNC(=O)COCCOCCNC(=O)CC[C@H](NC(=O)CCCCCCCCCCCCC(=O)O)C(=O)O)C(=O)N[C@@H](CO)C(=O)N[C@@H](CO)C(=O)NCC(=O)N[C@@H](C)C(=O)N1CCC[C@H]1C(=O)N1CCC[C@H]1C(=O)N1CCC[C@H]1C(=O)N[C@@H](CO)C(N)=O` [Example 213]: the Emax amounted to 95.6% on hGIPR (setting [1]); 92% at hGIPR (HEK293, percent of maximal response to GIP(1-42)NH2, 37° C., 0.1% bovine casein, arithmetic mean, read-out: hGIPR Emax, % ± SEM); 94.8% at hGLP-1R (HEK293, percent of maximal response to GLP-1(7-36)NH2, 37° C., 0.1% bovine casein, read-out: hGLP-1R Emax, % ± SEM). For the same compound, the EC50 on hGCGR (setting [2]) was more than 9950 nM; on hGCGR (cAMP, incubated at 37° C., 0.1% bovine casein (no human serum albumin), read-out: hGCGR EC50, nM (SEM, n)), more than 9950 nM.

For the compound `CC[C@H](C)[C@H](NC(=O)[C@H](CC(C)C)NC(=O)[C@](C)(Cc1ccc(O)cc1)NC(=O)[C@@H](CCC(=O)O)NC(=O)[C@@H](NC(=O)[C@H](Cc1ccccc1)NC(=O)[C@H](CCCCNC(=O)COCCOCCNC(=O)COCCOCCNC(=O)CC[C@H](NC(=O)CCCCCCCCCCCCC(=O)O)C(=O)O)NC(=O)C(C)(C)NC(=O)[C@H](CCC(N)=O)NC(=O)[C@H](C)NC(=O)[C@H](CCCCNC(=O)COCCOCCNC(=O)COCCOCCNC(=O)CC[C@H](NC(=O)CCCCCCCCCCCCC(=O)O)C(=O)O)NC(=O)[C@H](CCCN)NC(=O)[C@H](CC(=O)O)NC(=O)[C@H](CC(C)C)NC(=O)[C@](C)(CC(C)C)NC(=O)[C@@H](NC(=O)[C@H](CO)NC(=O)[C@H](Cc1ccc(OC)cc1)NC(=O)[C@H](CC(=O)O)NC(=O)[C@H](CO)NC(=O)[C@@H](NC(=O)[C@](C)(Cc1ccccc1F)NC(=O)[C@@H](NC(=O)CNC(=O)[C@H](CCC(=O)O)NC(=O)C(C)(C)NC(=O)[C@@H](N)Cc1ccc(O)cc1)[C@@H](C)O)[C@@H](C)O)[C@@H](C)CC)[C@@H](C)CC)C(=O)N[C@@H](CCC(=O)O)C(=O)NCC(=O)NCC(=O)N1CCC[C@H]1C(=O)N[C@@H](CO)C(=O)N[C@@H](CO)C(=O)NCC(=O)N[C@@H](C)C(=O)N1CCC[C@H]1C(=O)N1CCC[C@H]1C(=O)N1CCC[C@H]1C(=O)N[C@@H](CO)C(N)=O` [Example 259] (H-Y[Aib]EGT[αMePhe(2-F)]TSDY(Me)SI[αMeL]LD[Orn]K([AEEA-AEEA-γGlu-C14 diacid])AQ[Aib]K([AEEA-AEEA-γGlu-C14 diacid])FI[dE][αMeY]LIEGGPSSGAPPPS-NH2), the Emax on hGIPR (setting [1]) worked out at 66.4%; on hGIPR (HEK293, cAMP, 37° C., 0.1% bovine casein, percent of maximal response to GIP(1-42)NH2, arithmetic mean, read-out: hGIPR Emax, % ± SEM) it was 111%. The EC50 at hGIPR (setting [3]) is 0.0198 nM; on hGCGR (setting [2]) it was more than 9950 nM; on hGCGR (setting [4]), more than 9950 nM; on hGLP-1R (setting [5]) it was 28.9 nM; on hGLP-1R (setting [3]), 0.362 nM.

In the case of `CCCCCCCCCCCC(=O)N[C@@H](CCC(=O)NCCOCCOCC(=O)NCCOCCOCC(=O)NCCCC[C@H](NC(=O)[C@H](CCCN)NC(=O)[C@H](CC(=O)O)NC(=O)[C@H](CC(C)C)NC(=O)[C@](C)(CC(C)C)NC(=O)[C@@H](NC(=O)[C@H](CO)NC(=O)[C@H](CCCCNC(=O)COCCOCCNC(=O)COCCOCCNC(=O)CC[C@H](NC(=O)CCCCCCCCCCC)C(=O)O)NC(=O)[C@H](CC(=O)O)NC(=O)[C@H](CO)NC(=O)[C@@H](NC(=O)[C@](C)(Cc1ccccc1F)NC(=O)[C@@H](NC(=O)CNC(=O)[C@H](CCC(=O)O)NC(=O)C(C)(C)NC(=O)[C@@H](N)Cc1ccc(O)cc1)[C@@H](C)O)[C@@H](C)O)[C@@H](C)CC)C(=O)N[C@@H](C)C(=O)N[C@@H](CCC(N)=O)C(=O)NC(C)(C)C(=O)N[C@@H](CCC(=O)O)C(=O)N[C@@](C)(Cc1ccccc1)C(=O)N[C@H](C(=O)N[C@H](CCC(=O)O)C(=O)N[C@@](C)(Cc1ccc(O)cc1)C(=O)N[C@@H](CC(C)C)C(=O)N[C@H](C(=O)N[C@@H](CCC(=O)O)C(=O)NCC(=O)NCC(N)=O)[C@@H](C)CC)[C@@H](C)CC)C(=O)O` [Example 297] (H-Y[Aib]EGT[αMePhe(2-F)]TSDK([AEEA-AEEA-γGlu-Lauroyl])SI[αMeL]LD[Orn]K([AEEA-AEEA-γGlu-Lauroyl])AQ[Aib]E[αMeF]I[dE][αMeY]LIEGG-NH2), the EC50 was 1.54 nM at hGIPR (setting [5]); 0.0112 nM at hGIPR (setting [3]); more than 9950 nM on hGCGR (setting [2]); more than 9950 nM at hGCGR (setting [4]); 19.1 nM at hGLP-1R (setting [5]); 0.125 nM on hGLP-1R (setting [3]).
